The source of these data is patent US12172986B2, “Splicing modulator antibody-drug conjugates and methods of use” (EISAI R&D MANAGEMENT CO., LTD., priority 2018, dated 2024).

Series [1] concerns THP1.1. As to the kind of experiment: Payload cell potency and lethality CTGlo 72 h, THP1.1. As to conditions: for CTGlo-AT S GMean LD50 (nM) 72 h THP1.1: payload; for GI50: read-out: CTGlo-AT S GMean GI50 (nM) Ad2.2 HELA.2. Format: cell-based.
A short description of series [2]: Caco-2 permeability of ADC payload. In kind it is in vitro ADME. The settings on record: human, Caco-2, payload; for efflux ratio at 2 h, 10 μM: B-A/A-B, read-out: Eflux ratio. The procedure: (§1) Integrity of cell monolayer was confirmed by TEER (transepithelial electrical resistance) and Lucifer yellow. Payloads were spiked in duplicate at 10 μM, separately, on both sides of the cell monolayer. Permeability rates from the apical to basolateral (A-B) direction and the basolateral to apical (B-A) direction were determined by sampling aliquots from both chambers immediately after treatment (t=0) and following incubation for 2 hours. Samples were protein precipitated with organic solvent containing internal standard and analyzed by LC-MS/MS (SCIEX; API 5500). The area ratio responses of payload/internal standard over time in both directions were used to generate permeability (cm/see) values. Efflux ratio was calculated by dividing B-A/A-B. Control compounds for low and high permeability and efflux behaved as expected.

In series [3] the test system is Ad2.2 pre-mRNA splicing. In words: In vitro splicing (IVS) RT-qPCR, Ad2.2 pre-mRNA, HeLa nuclear extract. In kind it is biochemical. The settings on record: payload of the ADC; read-out: qPCR-IVS-AT S GMean IC50 (nM) Ad2.2 HELA.2. The procedure:
To evaluate payload activity in a cell-free system, an in vitro splicing assay was performed. The payloads were incubated with nuclear extracts and pre-mRNA substrate minigenes.
HeLa nuclear extract preparation: HeLa S3 cell pellets were resuspended in hypotonic buffer (10 mM HEPES pH 7.9, 1.5 mM MgCl2, 10 mM KCl, 0.2 mM PMSF, 0.5 mM DTT) and the suspension was brought up to a total of 5 packed cell volume (PCV). After centrifugation, the supernatant was discarded, and the cells were brought up to 3 PCV with hypotonic buffer and incubated on ice for 10 min. Cells were lysed using a dounce homogenizer and then centrifuged. […]. The nuclei were gently mixed for 30 min before centrifuging. The supernatant (nuclear extract) was then dialyzed into storage buffer (20 mM HEPES pH 7.9, 100 mM KCl, 0.2 mM EDTA, 20% glycerol, 0.2 mM PMSF, 0.5 mM DTT). Protein concentration was determined using NanoDrop 8000 UV-Vis spectrophotometer (ThermoFisher Scientific).
IVS: All Ad2-derived sequences (Pellizzoni et al. (1998) Cell 95(5):615-24) were cloned into pcDNA3.1(+) vector (Promega) using 5′ EcoRI and 3′ Xbal restriction sites. The plasmids were linearized using Xbal and used as DNA templates in in vitro transcription reactions. The FtzΔi intron-less plasmid (Luo and Reed (1999) 96(26):14937-42) was linearized using EcoRI. All RNAs were in vitro transcribed and then purified using MEGAScript T7 (Invitrogen) and MegaClear (Invitrogen) kits, respectively. For splicing reactions using Ad2 variant pre-mRNAs, 1 μL reactions were prepared using 8 μg nuclear extracts prepared from HeLa S3, 2 ng pre-mRNA, 0.2 ng FTZΔi, and varying concentrations of compounds or DMSO. After a 15 min pre-incubation at 30° C., 1 μL splicing activation buffer (0.5 mM ATP, 20 mM creatine phosphate, 1.6 mM MgCl2) was added, and the reactions were incubated for 90 min at 30° C. The reactions were then quenched with 13 μL DMSO, and 25 nL was used for RT-qPCR. RT-qPCR reactions were prepared using TaqMan RNA-to-CT 1-step kit (Life Technologies), RNA from splicing reactions, Ad2 (forward: […]; reverse: […]; probe: […]) and Ftz (forward: […]; reverse: […]; probe: […]) mRNA primer-probe sets. Prism 7 (Graphpad) was used for non-linear regression curve fitting of the formed spliced product and normalized to the control (DMSO) sample. […] In the presence of payload, a decrease in the amount of spliced product was observed.
On the technique in general: In qPCR the cycle at which signal appears reflects the starting amount.

Series [4] has as its system Ad2.1 pre-mRNA splicing. In words: In vitro splicing (IVS) RT-qPCR, Ad2.1 pre-mRNA, HeLa nuclear extract. In kind it is biochemical. As to conditions: payload of the ADC; read-out: qPCR-IVS-AT S Gmean IC50 (nm) Ad2.1 HELA.2.
Experimental: HeLa nuclear extract preparation: HeLa S3 cell pellets were resuspended in hypotonic buffer (10 mM HEPES pH 7.9, 1.5 mM MgCl2, 10 mM KCl, 0.2 mM PMSF, 0.5 mM DTT) and the suspension was brought up to a total of 5 packed cell volume (PCV). After centrifugation, the supernatant was discarded, and the cells were brought up to 3 PCV with hypotonic buffer and incubated on ice for 10 min. Cells were lysed using a dounce homogenizer and then centrifuged. […] The nuclei were gently mixed for 30 min before centrifuging. The supernatant (nuclear extract) was then dialyzed into storage buffer (20 mM HEPES pH 7.9, 100 mM KCl, 0.2 mM EDTA, 20% glycerol, 0.2 mM PMSF, 0.5 mM DTT). Protein concentration was determined using NanoDrop 8000 UV-Vis spectrophotometer (ThermoFisher Scientific).
IVS: All Ad2-derived sequences (Pellizzoni et al. (1998) Cell 95(5):615-24) were cloned into pcDNA3.1(+) vector (Promega) using 5′ EcoRI and 3′ Xbal restriction sites. The plasmids were linearized using Xbal and used as DNA templates in in vitro transcription reactions. The FtzΔi intron-less plasmid (Luo and Reed (1999) 96(26):14937-42) was linearized using EcoRI. All RNAs were in vitro transcribed and then purified using MEGAScript T7 (Invitrogen) and MegaClear (Invitrogen) kits, respectively. For splicing reactions using Ad2 variant pre-mRNAs, 1 μL reactions were prepared using 8 μg nuclear extracts prepared from HeLa S3, 2 ng pre-mRNA, 0.2 ng FTZΔi, and varying concentrations of compounds or DMSO. After a 15 min pre-incubation at 30° C., 1 μL splicing activation buffer (0.5 mM ATP, 20 mM creatine phosphate, 1.6 mM MgCl2) was added, and the reactions were incubated for 90 min at 30° C. The reactions were then quenched with 13 μL DMSO, and 25 nL was used for RT-qPCR. RT-qPCR reactions were prepared using TaqMan RNA-to-CT 1-step kit (Life Technologies), RNA from splicing reactions, Ad2 (forward: [sequence]; reverse: [sequence]; probe: [sequence]) and Ftz (forward: [sequence]; reverse: [sequence]; probe: [sequence]) mRNA primer-probe sets. Prism 7 (Graphpad) was used for non-linear regression curve fitting of the formed spliced product and normalized to the control (DMSO) sample.
The test system of series [5] is MCF7 cells. In words: Cell viability CellTiter-Glo, HER2-negative MCF7. The settings on record: unconjugated payload of the ADC. Background: Cellular ATP, detected with luciferase, serves as a proxy for viable cell number.
Experimental: HCC1954 (American Type Culture Collection (ATCC)) breast ductal carcinoma cells were plated at 2000 cells/well in flat bottom 96-well tissue culture plates (Corning) in a total volume of 90 μL tissue culture medium supplemented with 10% fetal bovine serum (ThermoFisher Scientific). Cells were treated with a 3-fold serial dilution of compound from 200 nM to 0.03 nM. Each concentration was tested in triplicate. At the time of treatment, a plate of untreated cells was evaluated using CellTiter-Glo®2.0 Luminescent Cell Viability Assay according to the manufacturer's recommendations (Promega; #G9241). CellTiter-Glo® 2.0 reagent was added to the medium, incubated, and assayed on an EnVision Multilabel Reader (PerkinElmer). Values represent time zero (TO). […] Using the luminescence value at time zero (TO), DMSO control growth (C), and test growth in the presence of compound (T144), the percentage growth was calculated at each of the compound concentrations levels. Percentage growth inhibition was calculated as: [(T144-T0)/(C-TO)]×100 for concentrations for which T144>/=TO or [(T144-T0)/T0]×100 for concentrations for which T144<TO. The dose response curve plots were generated using Prism 7 (Graphpad) and fit using nonlinear regression analysis and the log(inhibitor) versus response-variable slope (four parameters).
(§2) HCC1954 (ATCC), 2000 cells/well), N87 (ATCC, 4000 cells/well), SKBR3 (ATCC, 3000 cells/well), and MCF7 (ATCC, 1500 cells/well) cell lines were used.
Series [6] concerns PC3 cells. In words: Cell viability, EPHA2-expressing PC3. As to conditions: for Payload LD50: corresponding payload alone; for GI50: Homo sapiens, PC-3, corresponding payload alone. In kind it is cell-based.
Experimental: (§3) HCC1954 (American Type Culture Collection (ATCC)) breast ductal carcinoma cells were plated at 2000 cells/well in flat bottom 96-well tissue culture plates (Corning) in a total volume of 90 μL tissue culture medium supplemented with 10% fetal bovine serum (ThermoFisher Scientific). Cells were treated with a 3-fold serial dilution of compound from 200 nM to 0.03 nM. Each concentration was tested in triplicate. At the time of treatment, a plate of untreated cells was evaluated using CellTiter-Glo®2.0 Luminescent Cell Viability Assay according to the manufacturer's recommendations (Promega; #G9241). CellTiter-Glo® 2.0 reagent was added to the medium, incubated, and assayed on an EnVision Multilabel Reader (PerkinElmer). Values represent time zero (TO). […] Percentage growth inhibition was calculated as: [(T144-T0)/(C-TO)]×100 for concentrations for which T144>/=TO or [(T144-T0)/T0]×100 for concentrations for which T144<TO. The dose response curve plots were generated using Prism 7 (Graphpad) and fit using nonlinear regression analysis and the log(inhibitor) versus response-variable slope (four parameters).
Series [7] has as its system HCC1954 cells. In words: Cell viability CellTiter-Glo, HCC1954. The settings on record: unconjugated payload of the ADC. In kind it is cell-based.
Experimental: as §3, §2
Series [8] concerns N87 cells. In words: Cell viability CellTiter-Glo, N87. Format: cell-based, human. As to conditions: unconjugated payload of the ADC.
Experimental: as §3, §2
Series [9] deals with Caco-2 cells. As to the kind of experiment: Caco-2 permeability of ADC payload. As to conditions: for Perm. Mean Caco-2 A-B Perm (10e-6 cm/s) / Perm. Mean Caco-2 B-A Perm (10e-6 cm/s): corresponding free payload of the ADC. In kind it is in vitro ADME. The method, then:
as §1
(Caco-2 cells form a polarised layer with tight junctions and transporters.)

For the compound `CC[C@H](O)[C@@H](C)[C@H]1O[C@@H]1C[C@H](C)/C=C/C=C(\C)[C@H]1OC(=O)C[C@H](O)CC[C@@](C)(OC(C)=O)[C@@H](OC(=O)N2CCNCC2)/C=C/[C@@H]1C` [D9], the “CTGlo-AT S GMean LD50 (nM) 72 h THP1.1” value in series [1] turned out to be 3.56 nM. For the same compound, the efflux ratio at 2 h, 10 μM in series [2] was determined as 14. The IC50 – broadly, the midpoint of a concentration-inhibition curve – stood at 18.1 nM in series [3] and 20.2 nM in series [4].
Regarding `CC[C@H](O)[C@@H](C)[C@H]1O[C@@H]1C[C@@](C)(O)/C=C/C=C(\C)[C@H]1OC(=O)C[C@H](O)CC[C@@](C)(OC)[C@@H](OC(=O)N2CCNC(CCC(=O)O)C2)/C=C/[C@@H]1C` (stereo partly drawn) [D22, 3-(4-((((2S,3S,6S,7R,10R,E)-10-hydroxy-2-((R,2E,4E)-6-hydroxy-7-((2R,3R)-3-((2R,3S)-3-hydroxypentan-2-yl)oxiran-2-yl)-6-methylhepta-2,4-dien-2-yl)-7-methoxy-3,7-dimethyl-12-oxooxacyclododec-4-en-6-yl)oxy)carbonyl)piperazin-2-yl)propanoic acid], the “CTGlo-AT S GMean LD50 (nM) 72 h THP1.1” value in series [1] amounted to 1594.636 nM. Moreover, the Papp B→A at 2 h, 10 μM in [2] (10 μM, 2 hours, basolateral to apical, read-out: Permeability Mean Caco-2 B-A Perm (10e-Gcm/s)) amounted to 0.18 ×10⁻⁶ cm/s. For the same compound, the IC50 is 49.1 nM in [3] and 66.3 nM in series [4].
As for `C/C(=C\c1cc(F)cc(N2CCN(CC(=O)O)CC2)c1)[C@H]1OC(=O)C[C@H](O)CC[C@H](C)[C@@H](OC(=O)N2CCNCC2)/C=C/[C@@H]1C` [D33, 2-(4-(3-fluoro-5-((E)-2-((2S,3S,6R,7S,10R,E)-10-hydroxy-3,7-dimethyl-12-oxo-6-((piperazine-1-carbonyl)oxy)oxacyclododec-4-en-2-yl)prop-1-en-1-yl)phenyl)piperazin-1-yl)acetic acid], the “CTGlo-AT S GMean LD50 (nM) 72 h THP1.1” value in series [1] was determined as 5202.992 nM. In series [1], the GI50 (usually the concentration that inhibits growth by half) worked out at 196 nM. For the same compound, the IC50 is 72.4 nM in [3] and 33.4 nM in series [4].
Take `CC[C@H](O)[C@@H](C)[C@H]1O[C@@H]1C[C@@](C)(O)/C=C/C=C(\C)[C@H]1OC(=O)C[C@H](O)CC[C@@](C)(OC(=O)N2CCNCC2)[C@@H](OC(C)=O)/C=C/[C@@H]1C` [D8, (2S,3S,6S,7R,10R,E)-6-acetoxy-10-hydroxy-2-((R,2E,4E)-6-hydroxy-7-((2R,3R)-3-((2R,3S)-3-hydroxypentan-2-yl)oxiran-2-yl)-6-methylhepta-2,4-dien-2-yl)-3,7-dimethyl-12-oxooxacyclododec-4-en-7-yl piperazine-1-carboxylate]: the “CTGlo-AT S GMean LD50 (nM) 72 h THP1.1” value in series [1] was 38.969 nM. Also, the “Payload LD50” value in series [5] is given as 181.521 nM; in series [6], 177.783 nM; in series [7], 11.175 nM; in series [8], over 200 nM. For the same compound, the figures for the “Payload Rmin (%)” value in [5] and in series [7] were −62.957% and −80.463%, respectively. Also, the “Perm. Mean Caco-2 A-B Perm (10e-6 cm/s)” value in series [9] is 0.128 10e-6 cm/s. The “Perm. Mean Caco-2 B-A Perm (10e-6 cm/s)” value in series [9] is listed as 2.027 10e-6 cm/s. The efflux ratio at 2 h, 10 μM in series [2] amounted to 15.9. Moreover, the IC50 in series [3] was 9.03 nM; in series [4], 11.4 nM.
As for `C/C(=C\c1cc(F)cc(N2CCN(C(=O)Cn3cccn3)CC2)c1)[C@H]1OC(=O)C[C@H](O)CC[C@H](C)[C@@H](OC(=O)N2CCN(C)CC2)/C=C/[C@@H]1C` [D26], the “CTGlo-AT S GMean LD50 (nM) 72 h THP1.1” value in [1] is 28.483 nM. Further, the efflux ratio at 2 h, 10 μM in series [2] was 2.58. Besides, the IC50 in series [3] came out at 14.3 nM; in series [4], 18.8 nM.
For `CC[C@H](O)[C@@H](C)[C@H]1O[C@@H]1C[C@@](C)(O)/C=C/C=C(\C)[C@H]1OC(=O)C[C@H](O)CC[C@@](C)(O)[C@@H](OC(=O)N2CCN(C3CCCCCC3)CC2)/C=C/[C@@H]1C` [D11, E7107], the “CTGlo-AT S GMean LD50 (nM) 72 h THP1.1” value in series [1] is given as 8.086 nM. Also, in [1], the GI50 came out at 1.35 nM. Also, the values for the IC50 in series [3] and in [4] were 9.36 nM and 10.5 nM, respectively.
For the compound `CC[C@H](O)[C@@H](C)[C@H]1O[C@@H]1C[C@@](C)(O)/C=C/C=C(\C)[C@H]1OC(=O)C[C@H](O)CC[C@@](C)(OC)[C@@H](OC(=O)N(C)CCNC)/C=C/[C@@H]1C` [D20, (2S,3S,6S,7R,10R,E)-10-hydroxy-2-((R,2E,4E)-6-hydroxy-7-((2R,3R)-3-((2R,3S)-3-hydroxypentan-2-yl)oxiran-2-yl)-6-methylhepta-2,4-dien-2-yl)-7-methoxy-3,7-dimethyl-12-oxooxacyclododec-4-en-6-yl methyl(2-(methylamino)ethyl)carbamate], the “CTGlo-AT S GMean LD50 (nM) 72 h THP1.1” value in series [1] is on record as 113.557 nM. For the same compound, the IC50 in series [3] was found to be 8.75 nM; in series [4] it was 10.9 nM.
In the case of `C/C(=C\c1cc(F)cc(N2CCN(S(=O)(=O)c3cnn(C)c3)CC2)c1)[C@H]1OC(=O)C[C@H](O)CC[C@H](C)[C@@H](OC(=O)N2CCNCC2)/C=C/[C@@H]1C` [D28], in series [6], the GI50 is over 400 nM and the “Payload LD50” value is on record as over 400 nM.
On to `CC[C@H](O)[C@@H](C)[C@H]1O[C@@H]1C[C@@](C)(O)/C=C/C=C(\C)[C@H]1OC(=O)C[C@H](O)CC[C@@](C)(O)[C@@H](OC(=O)N2CCNCC2)/C=C/[C@@H]1C` [D12, (2S,3S,6S,7R,10R,E)-7,10-dihydroxy-2-((R,2E,4E)-6-hydroxy-7-((2R,3R)-3-((2R,3S)-3-hydroxypentan-2-yl)oxiran-2-yl)-6-methylhepta-2,4-dien-2-yl)-3,7-dimethyl-12-oxooxacyclododec-4-en-6-yl piperazine-1-carboxylate], for which, in [9], the “Perm. Mean Caco-2 A-B Perm (10e-6 cm/s)” value was 0.17 10e-6 cm/s and the “Perm. Mean Caco-2 B-A Perm (10e-6 cm/s)” value is listed as 0.23 10e-6 cm/s. The “efflux ratio (in words)” value in [9] (payload) is given as “low efflux ratio”.
Regarding `CC[C@H](O)[C@@H](C)[C@H]1O[C@@H]1C[C@H](C)/C=C/C=C(\C)[C@H]1OC(=O)C[C@H](O)CC[C@@](C)(OC(=O)N2CCNCC2)[C@@H](OC(C)=O)/C=C/[C@@H]1C` [D13], the “CTGlo-AT S GMean LD50 (nM) 72 h THP1.1” value in series [1] is on record as 3.358 nM. Moreover, in series [2], the efflux ratio at 2 h, 10 μM was 19.1. Further, the IC50 in series [3] was 8.82 nM; in series [4], 11.3 nM.
For the compound `CC[C@H](O)[C@@H](C)[C@H]1O[C@@H]1C[C@H](C)/C=C/C=C(\C)[C@H]1OC(=O)C[C@H](O)CC[C@@](C)(OC)[C@@H](OC(=O)N2CCNCC2)/C=C/[C@@H]1C` [D18, (2S,3S,6S,7R,10R,E)-10-hydroxy-2-((S,2E,4E)-7-((2R,3R)-3-((2R,3S)-3-hydroxypentan-2-yl)oxiran-2-yl)-6-methylhepta-2,4-dien-2-yl)-7-methoxy-3,7-dimethyl-12-oxooxacyclododec-4-en-6-yl piperazine-1-carboxylate], the “CTGlo-AT S GMean LD50 (nM) 72 h THP1.1” value in [1] is 4.355 nM. The “Payload LD50” value is recorded as 7.697 nM in [5], over 400 nM in [6], 0.787 nM in series [7] and 2.993 nM in series [8]. The “Payload Rmin (%)” value in series [5] is listed as −68.226%; in [7], −90.055%. Besides, in series [6], the GI50 worked out at 1.41 nM. Besides, the IC50 in series [3] and in series [4] was 12.7 nM throughout.
